Reference: patent US20080286337A1, “Method of treating a disease in an eye using a scleral lens” (Boston Foundation for Sight, priority 2007, published 2008)
Where two headings read alike, the source gives them in different places.

How the values were obtained:
[1] = system: corneal neovascularization; conditions: solution of 1% AVASTIN and 0.01% BAK, one drop, four times per day for at least thirty days; no scleral lens; cited from earlier work
[2] = system: corneal neovascularization; assay: Topical AVASTIN in the scleral lens drug delivery system to treat corneal neovascularization; assay type: in vivo
Excerpt: This study using AVASTIN® off-label, topically, to treat corneal neovascularization was repeated using the scleral lens drug delivery system. […] This therapeutic effect was achieved without BAK. Instead, the expanded pre-corneal tear film of the scleral lens drug delivery system provided adequate bioavailability of the drug without exposing the cornea to BAK.

bevacizumab [AVASTIN®]
therapeutic effect on corneal neovascularization [1]: Therapeutic effect was reported
therapeutic effect on corneal neovascularization ([2]; one drop of 1% AVASTIN added to expanded pre-corneal tear film of artificial tears in a scleral lens twice per day, without BAK): achieved a therapeutic effect by thirty days
continued benefit after initial therapeutic effect ([2]; same regimen, the sixty days following the first thirty days): continued benefit over the subsequent sixty days
regression of corneal neovascularization (clinical photos, FIG. 5) ([2]; scleral lens drug delivery system): regression of corneal neovascularization
